From ChEMBL document CHEMBL1201861, “Genomics of Drug Sensitity in Cancer screening data, Wellcome Trust Sanger Institute”

Tests used:
Experiment in all cases: cells
SW1573 = format: functional, cell-based, Homo sapiens; details: Homo sapiens, SW1573;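 further: growth inhibition of SW1573 cells, read out with a cell viability assay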
Description: SANGER: Inhibition of human SW1573 cell growth in a cell viability assay.

HCC1419 = format: functional, cell-based, Homo sapiens; details: Homo sapiens, HCC1419;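 further: growth inhibition of human HCC1419 cells, read out as cell viability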
Description: SANGER: Inhibition of human HCC1419 cell growth in a cell viability assay.

PA-1 = format: functional, cell-based, Homo sapiens; details: Homo sapiens, PA-1;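 further: IC50 for suppression of PA-1 cell proliferation, determined with a cell viability read-out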
Description: SANGER: Inhibition of human PA-1 cell growth in a cell viability assay.

SW1417 = format: functional, cell-based, Homo sapiens; details: Homo sapiens, SW1417;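 further: growth inhibition of human SW1417 cells, read out with a cell viability assay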
Description: SANGER: Inhibition of human SW1417 cell growth in a cell viability assay.

SW948 = format: functional, cell-based, Homo sapiens; details: Homo sapiens, SW948;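 further: growth inhibition of SW948 cells, read out with a cell viability assay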
Description: SANGER: Inhibition of human SW948 cell growth in a cell viability assay.

EFO-21 = format: functional, cell-based, Homo sapiens; details: Homo sapiens, EFO-21;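 further: growth inhibition of EFO-21 cells measured with a viability assay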
Description: SANGER: Inhibition of human EFO-21 cell growth in a cell viability assay.

KYSE-150 cell line = format: functional, cell-based, Homo sapiens; details: Homo sapiens, KYSE-150;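 further: growth inhibition of human KYSE-150 cells, read out with a cell viability assay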
Description: SANGER: Inhibition of human KYSE-150 cell growth in a cell viability assay.

C8166 = format: functional, cell-based; details: Homo sapiens;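 further: growth inhibition of human C8166 cells measured by a cell viability assay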
Description: SANGER: Inhibition of human C8166 cell growth in a cell viability assay.

KYSE-270 = format: functional, cell-based, Homo sapiens; details: Homo sapiens, KYSE-270;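 further: cell growth inhibition measured with a viability assay in the human KYSE-270 line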
Description: SANGER: Inhibition of human KYSE-270 cell growth in a cell viability assay.

Ramos-2G6-4C10 = format: functional, cell-based; details: Homo sapiens;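 further: growth inhibition of the cell line, measured by a cell viability read-out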
Description: SANGER: Inhibition of human Ramos-2G6-4C10 cell growth in a cell viability assay.

GCT = format: functional, cell-based, Homo sapiens; details: Homo sapiens, GCT;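 further: GCT cell line proliferation inhibition, read out with a cell viability assay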
Description: SANGER: Inhibition of human GCT cell growth in a cell viability assay.

CAL-51 = format: functional, cell-based, Homo sapiens; details: Homo sapiens, CAL-51;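 further: human CAL-51 cell line, growth inhibition read out via a cell viability assay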
Description: SANGER: Inhibition of human CAL-51 cell growth in a cell viability assay.

RH-1 = format: functional, cell-based, Homo sapiens; details: Homo sapiens, RH-1;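 further: growth inhibition of human RH-1 cells, read out with a cell viability assay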
Description: SANGER: Inhibition of human RH-1 cell growth in a cell viability assay.

COLO-668 = format: functional, cell-based, Homo sapiens; details: Homo sapiens, COLO-668
Description: SANGER: Inhibition of human COLO-668 cell growth in a cell viability assay.

Huh-7 = format: functional, cell-based, Homo sapiens; details: Homo sapiens, Huh-7;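 further: HuH-7 cell growth inhibition, read out with a cell viability assay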
Description: SANGER: Inhibition of human HuH-7 cell growth in a cell viability assay.

U-87 MG = format: functional, cell-based, U-87MG ATCC; details: Homo sapiens;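 further: growth inhibition of the cells measured with a viability assay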
Description: SANGER: Inhibition of human U-87-MG cell growth in a cell viability assay.

KLE = format: functional, cell-based, Homo sapiens; details: Homo sapiens, KLE;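 further: growth inhibition of human KLE cells, read out with a cell viability assay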
Description: SANGER: Inhibition of human KLE cell growth in a cell viability assay.

HOS = format: functional, cell-based, Homo sapiens; details: Homo sapiens, HOS;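 further: growth inhibition of human HOS cells, read out with a cell viability assay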
Description: SANGER: Inhibition of human HOS cell growth in a cell viability assay.

SK-NEP-1 = format: functional, cell-based; details: Homo sapiens;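 further: growth inhibition of human SK-NEP-1 cells, read out by a cell viability assay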
Description: SANGER: Inhibition of human SK-NEP-1 cell growth in a cell viability assay.

NCI-H1092 = format: functional, cell-based; details: Homo sapiens;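 further: cell growth inhibition measured with a cell viability assay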
Description: SANGER: Inhibition of human NCI-H1092 cell growth in a cell viability assay.

NCI-H747 = format: functional, cell-based; details: Homo sapiens;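 further: growth inhibition of human NCI-H747 cells, read out by a cell viability assay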
Description: SANGER: Inhibition of human NCI-H747 cell growth in a cell viability assay.

SK-MEL-30 = format: functional, cell-based; details: Homo sapiens;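 further: growth inhibition of SK-MEL-30 cells, determined with a cell viability assay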
Description: SANGER: Inhibition of human SK-MEL-30 cell growth in a cell viability assay.

639-V = format: functional, cell-based, Homo sapiens; details: Homo sapiens, 639-V;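 further: growth inhibition of 639-V cells, read out with a cell viability assay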
Description: SANGER: Inhibition of human 639-V cell growth in a cell viability assay.

IST-MEL1 = format: functional, cell-based, Homo sapiens; details: Homo sapiens, IST-MEL1;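 further: growth inhibition of the cell line, read out with a cell viability assay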
Description: SANGER: Inhibition of human IST-MEL1 cell growth in a cell viability assay.

CAL-120 = format: functional, cell-based, Homo sapiens; details: Homo sapiens, CAL-120;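 further: cell growth inhibition, read out as cell viability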
Description: SANGER: Inhibition of human CAL-120 cell growth in a cell viability assay.

NCI-H2126 = format: functional, cell-based, Homo sapiens; details: Homo sapiens, NCI-H2126;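 further: growth inhibition of the cancer cell line, determined with a cell viability readout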
Description: SANGER: Inhibition of human NCI-H2126 cell growth in a cell viability assay.

NCI-H1755 = format: functional, cell-based, Homo sapiens; details: Homo sapiens, NCI-H1755;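 further: cell viability readout used to measure growth inhibition of NCI-H1755 cells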
Description: SANGER: Inhibition of human NCI-H1755 cell growth in a cell viability assay.

LCLC-103H cell line = format: functional, cell-based, Homo sapiens; details: Homo sapiens, LCLC-103H
Description: SANGER: Inhibition of human LCLC-103H cell growth in a cell viability assay.

A388 = format: functional, cell-based, Homo sapiens; details: Homo sapiens, A388;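 further: growth inhibition of human A388 cells, read out with a cell viability assay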
Description: SANGER: Inhibition of human A388 cell growth in a cell viability assay.

NCI-H2452 = format: functional, cell-based, Homo sapiens; details: Homo sapiens, NCI-H2452;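 further: growth inhibition of NCI-H2452 cells, read out with a cell viability assay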
Description: SANGER: Inhibition of human NCI-H2452 cell growth in a cell viability assay.

ES4 = format: functional, cell-based, Homo sapiens; details: Homo sapiens, ES4;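 further: growth inhibition of human ES4 cells, read out by a cell viability assay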
Description: SANGER: Inhibition of human ES4 cell growth in a cell viability assay.

SW684 = format: functional, cell-based, Homo sapiens; details: Homo sapiens, SW684;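 further: growth inhibition of human SW684 cells, measured by a cell viability assay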
Description: SANGER: Inhibition of human SW684 cell growth in a cell viability assay.

MC-IXC = format: functional, cell-based, Homo sapiens; details: Homo sapiens, MC-IXC;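 further: growth inhibition of MC-IXC cells, read out with a cell viability assay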
Description: SANGER: Inhibition of human MC-IXC cell growth in a cell viability assay.

IGR-1 = format: functional, cell-based, Homo sapiens; details: Homo sapiens, IGR-1;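 further: growth inhibition of human IGR-1 cells, read out with a cell viability assay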
Description: SANGER: Inhibition of human IGR-1 cell growth in a cell viability assay.

LS-513 = format: functional, cell-based, Homo sapiens; details: Homo sapiens, LS-513
Description: SANGER: Inhibition of human LS-513 cell growth in a cell viability assay.

COR-L23 = format: functional, cell-based, Homo sapiens; details: Homo sapiens, COR-L23;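 further: cell viability assay measuring how strongly compounds suppress growth of COR-L23 cells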
Description: SANGER: Inhibition of human COR-L23 cell growth in a cell viability assay.

NCI-H2087 = format: functional, cell-based, Homo sapiens; details: Homo sapiens, NCI-H2087;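 further: growth inhibition determined with a cell viability readout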
Description: SANGER: Inhibition of human NCI-H2087 cell growth in a cell viability assay.

P30-OHK = format: functional, cell-based; details: Homo sapiens;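 further: growth inhibition of the P30-OHK cell line, read out with a cell viability assay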
Description: SANGER: Inhibition of human P30-OHK cell growth in a cell viability assay.

QIMR-WIL = format: functional, cell-based; details: Homo sapiens;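 further: growth inhibition of QIMR-WIL cells, read out with a cell viability assay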
Description: SANGER: Inhibition of human QIMR-WIL cell growth in a cell viability assay.

SF-268 = format: functional, cell-based, Homo sapiens; details: Homo sapiens, SF-268;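 further: growth inhibition of SF-268 cells determined with a cell viability assay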
Description: SANGER: Inhibition of human SF268 cell growth in a cell viability assay.

ME-180 = format: functional, cell-based; details: Homo sapiens;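 further: cell viability assay measuring growth inhibition of ME-180 cells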
Description: SANGER: Inhibition of human ME-180 cell growth in a cell viability assay.

NCI-H1793 = format: functional, cell-based, Homo sapiens; details: Homo sapiens, NCI-H1793;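 further: cell growth inhibition, read out by a cell viability assay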
Description: SANGER: Inhibition of human NCI-H1793 cell growth in a cell viability assay.

T-24 = format: functional, cell-based, Homo sapiens; details: Homo sapiens, T-24;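 further: growth inhibition of T-24 cells, read out with a cell viability assay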
Description: SANGER: Inhibition of human T-24 cell growth in a cell viability assay.

MG-63 = format: functional, cell-based, Homo sapiens; details: Homo sapiens, MG-63;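 further: growth inhibition of human MG-63 cells, read out with a cell viability assay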
Description: SANGER: Inhibition of human MG-63 cell growth in a cell viability assay.

A-375 = format: functional, cell-based, Homo sapiens; details: Homo sapiens, A-375;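 further: growth inhibition of A375 cells, read out with a cell viability assay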
Description: SANGER: Inhibition of human A375 cell growth in a cell viability assay.

COLO-741 = format: functional, cell-based, Homo sapiens; details: Homo sapiens, COLO-741
Description: SANGER: Inhibition of human COLO-741 cell growth in a cell viability assay.

SW1783 = format: functional, cell-based; details: Homo sapiens;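 further: cell growth inhibition measured with a viability assay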
Description: SANGER: Inhibition of human SW1783 cell growth in a cell viability assay.

NCI-H1395 = format: functional, cell-based, Homo sapiens; details: Homo sapiens, NCI-H1395;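 further: cell viability assay read-out quantifying reduced proliferation of human NCI-H1395 cells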
Description: SANGER: Inhibition of human NCI-H1395 cell growth in a cell viability assay.

LU-134-A = format: functional, cell-based; details: Homo sapiens
Description: SANGER: Inhibition of human LU-134-A cell growth in a cell viability assay.

G-401 = format: functional, cell-based, Homo sapiens; details: Homo sapiens, G-401
Description: SANGER: Inhibition of human G-401 cell growth in a cell viability assay.

OVCAR-5 = format: functional, cell-based, Homo sapiens; details: Homo sapiens, OVCAR-5;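 further: growth inhibition of human OVCAR-5 cells, read out with a cell viability assay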
Description: SANGER: Inhibition of human OVCAR-5 cell growth in a cell viability assay.

With `Cc1cnc(-c2cnc(NCCNc3ccc(C#N)cn3)nc2-c2ccc(Cl)cc2Cl)[nH]1` [LADUVIGLUSIB] the IC50 (SW1573) was > 2.56 µM, the IC50 (HCC1419) was > 2.56 µM and the IC50 (PA-1) was > 2.56 µM. The IC50 (SW1417) was > 2.56 µM, the IC50 (SW948) was > 2.56 µM and the IC50 (EFO-21) was > 2.56 µM. For the same molecule, the IC50 (KYSE-150 cell line) was > 2.56 µM, the IC50 (C8166) was > 2.56 µM and the IC50 (KYSE-270) was > 2.56 µM. For the same molecule, the IC50 (Ramos-2G6-4C10) was > 2.56 µM, the IC50 (GCT) was 0.307 µM and the IC50 (CAL-51) was > 2.56 µM. The IC50 (RH-1) was > 2.56 µM, the IC50 (COLO-668) was > 2.56 µM and the IC50 (Huh-7) was > 2.56 µM. The IC50 (U-87 MG) was > 2.56 µM, the IC50 (KLE) was > 2.56 µM and the IC50 (HOS) was > 2.56 µM. The IC50 (SK-NEP-1) was > 2.56 µM, the IC50 (NCI-H1092) was > 2.56 µM and the IC50 (NCI-H747) was > 2.56 µM. For the same molecule, the IC50 (SK-MEL-30) was > 2.56 µM, the IC50 (639-V) was > 2.56 µM and the IC50 (IST-MEL1) was > 2.56 µM. The IC50 (CAL-120) was > 2.56 µM, the IC50 (NCI-H2126) was > 2.56 µM and the IC50 (NCI-H1755) was > 2.56 µM. The IC50 (LCLC-103H cell line) was > 2.56 µM, the IC50 (A388) was > 2.56 µM and the IC50 (NCI-H2452) was > 2.56 µM. The IC50 (ES4) was > 2.56 µM, the IC50 (SW684) was > 2.56 µM and the IC50 (MC-IXC) was > 2.56 µM. For the same molecule, the IC50 (IGR-1) was > 2.56 µM, the IC50 (LS-513) was > 2.56 µM and the IC50 (COR-L23) was > 2.56 µM. For the same molecule, the IC50 (NCI-H2087) was > 2.56 µM, the IC50 (P30-OHK) was > 2.56 µM and the IC50 (QIMR-WIL) was > 2.56 µM. For the same molecule, the IC50 (SF-268) was > 2.56 µM, the IC50 (ME-180) was > 2.56 µM and the IC50 (NCI-H1793) was > 2.56 µM. For the same molecule, the IC50 (T-24) was > 2.56 µM, the IC50 (MG-63) was > 2.56 µM and the IC50 (A-375) was > 2.56 µM. For the same molecule, the IC50 (COLO-741) was > 2.56 µM, the IC50 (SW1783) was > 2.56 µM and the IC50 (NCI-H1395) was > 2.56 µM. The IC50 (LU-134-A) was > 2.56 µM, the IC50 (G-401) was > 2.56 µM and the IC50 (OVCAR-5) was > 2.56 µM.

With `C[C@]1(O)C[C@@H](c2nc(-c3ccc4ccc(-c5ccccc5)nc4c3)c3c(N)nccn32)C1` [LINSITINIB] the IC50 (SW1573) was > 2.56 µM, the IC50 (HCC1419) was > 2.56 µM and the IC50 (PA-1) was > 2.56 µM. For the same molecule, the IC50 (SW1417) was > 2.56 µM, the IC50 (SW948) was > 2.56 µM and the IC50 (EFO-21) was > 2.56 µM. The IC50 (KYSE-150 cell line) was > 2.56 µM, the IC50 (C8166) was > 2.56 µM and the IC50 (KYSE-270) was > 2.56 µM. The IC50 (Ramos-2G6-4C10) was > 2.56 µM, the IC50 (GCT) was > 2.56 µM and the IC50 (CAL-51) was > 2.56 µM. It also gave an IC50 (RH-1) of 0.749 µM, an IC50 (COLO-668) of 0.847 µM and an IC50 (Huh-7) of 1.6 µM. For the same molecule, the IC50 (U-87 MG) was > 2.56 µM, the IC50 (KLE) was > 2.56 µM and the IC50 (HOS) was > 2.56 µM. For the same molecule, the IC50 (SK-NEP-1) was 0.602 µM, the IC50 (NCI-H1092) was > 2.56 µM and the IC50 (NCI-H747) was > 2.56 µM. The IC50 (SK-MEL-30) was > 2.56 µM, the IC50 (639-V) was > 2.56 µM and the IC50 (IST-MEL1) was > 2.56 µM. For the same molecule, the IC50 (CAL-120) was > 2.56 µM, the IC50 (NCI-H2126) was > 2.56 µM and the IC50 (NCI-H1755) was > 2.56 µM. The IC50 (LCLC-103H cell line) was > 2.56 µM, the IC50 (A388) was > 2.56 µM and the IC50 (NCI-H2452) was > 2.56 µM. For the same molecule, the IC50 (ES4) was 0.41 µM, the IC50 (SW684) was > 2.56 µM and the IC50 (MC-IXC) was 1.99 µM. The IC50 (IGR-1) was > 2.56 µM, the IC50 (LS-513) was 2.05 µM and the IC50 (COR-L23) was > 2.56 µM. For the same molecule, the IC50 (NCI-H2087) was > 2.56 µM, the IC50 (P30-OHK) was > 2.56 µM and the IC50 (QIMR-WIL) was > 2.56 µM. The IC50 (SF-268) was > 2.56 µM, the IC50 (ME-180) was > 2.56 µM and the IC50 (NCI-H1793) was > 2.56 µM. The IC50 (T-24) was > 2.56 µM, the IC50 (MG-63) was > 2.56 µM and the IC50 (A-375) was 0.476 µM. The IC50 (COLO-741) was > 2.56 µM, the IC50 (SW1783) was > 2.56 µM and the IC50 (NCI-H1395) was > 2.56 µM. For the same molecule, the IC50 (LU-134-A) was 2.28 µM, the IC50 (G-401) was 0.182 µM and the IC50 (OVCAR-5) was > 2.56 µM.
